From paper PMC7714403 (JCI Insight, 2020)

Assays:
NEK8 = NEK8 (Homo sapiens, UniProt Q86SG6); test: KiNativ, OCI cells live cell; format: cell-based; details: 2 h, labeling site Lys2, peptide […]
PCTAIRE2, PCTAIRE3 = test: KiNativ, OCI cells live cell; format: cell-based, human; details: labeling site Lys1, peptide SKLTENLVALKEIR
PIP4K2C = target: T1, PIP4K2C (Homo sapiens, UniProt Q8TBX8); test: KiNativ, OCI cells live cell; format: cell-based; details: 2 h, labeling site ATP
T1 sequence (Q8TBX8 1-421): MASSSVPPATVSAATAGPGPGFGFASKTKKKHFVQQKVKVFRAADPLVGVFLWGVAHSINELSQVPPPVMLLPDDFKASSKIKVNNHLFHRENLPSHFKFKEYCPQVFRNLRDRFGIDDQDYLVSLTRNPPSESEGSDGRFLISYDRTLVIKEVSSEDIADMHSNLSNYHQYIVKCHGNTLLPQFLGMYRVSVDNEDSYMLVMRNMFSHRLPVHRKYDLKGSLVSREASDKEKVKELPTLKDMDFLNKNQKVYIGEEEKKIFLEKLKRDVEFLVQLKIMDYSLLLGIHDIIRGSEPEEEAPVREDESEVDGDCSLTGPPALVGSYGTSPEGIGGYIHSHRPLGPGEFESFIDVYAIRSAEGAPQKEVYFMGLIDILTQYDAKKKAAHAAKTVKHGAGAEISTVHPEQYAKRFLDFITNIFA

GCK = target: T2, GCK (Homo sapiens, UniProt Q12851); test: KdELECT binding assay; parameters: purchased Eurofins DiscoverX
T2 sequence (Q12851 1-820): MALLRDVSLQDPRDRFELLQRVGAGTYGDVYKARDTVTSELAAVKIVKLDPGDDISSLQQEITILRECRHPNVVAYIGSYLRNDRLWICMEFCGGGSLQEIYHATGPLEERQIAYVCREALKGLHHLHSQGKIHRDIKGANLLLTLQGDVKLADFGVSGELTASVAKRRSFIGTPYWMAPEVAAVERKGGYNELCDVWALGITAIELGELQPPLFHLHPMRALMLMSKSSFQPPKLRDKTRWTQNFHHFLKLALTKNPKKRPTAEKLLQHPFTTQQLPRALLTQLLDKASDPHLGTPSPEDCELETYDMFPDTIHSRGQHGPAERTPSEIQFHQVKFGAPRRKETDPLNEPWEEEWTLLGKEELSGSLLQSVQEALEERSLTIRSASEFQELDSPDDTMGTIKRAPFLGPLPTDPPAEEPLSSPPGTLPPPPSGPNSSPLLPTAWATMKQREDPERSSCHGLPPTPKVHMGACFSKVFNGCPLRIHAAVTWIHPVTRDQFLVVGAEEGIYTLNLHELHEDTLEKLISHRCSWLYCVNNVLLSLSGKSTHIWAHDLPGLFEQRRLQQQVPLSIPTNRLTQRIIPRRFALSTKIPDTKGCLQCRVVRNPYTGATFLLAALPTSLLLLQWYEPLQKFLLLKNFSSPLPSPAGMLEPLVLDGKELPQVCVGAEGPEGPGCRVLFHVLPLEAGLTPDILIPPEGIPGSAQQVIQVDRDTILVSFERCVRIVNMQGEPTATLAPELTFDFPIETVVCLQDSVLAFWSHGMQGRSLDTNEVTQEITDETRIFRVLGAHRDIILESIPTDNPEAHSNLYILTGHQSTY

MST4, YSK1 = test: KiNativ, OCI cells live cell; format: cell-based, human; details: labeling site Lys2, peptide DIKAANVLLSEQGDVK
NEK4 = NEK4 (Homo sapiens, UniProt P51957); test: KiNativ, OCI cells live cell; format: cell-based; details: 2 h, labeling site Lys2, peptide […]
FER = FER (Homo sapiens, UniProt P16591); test: KiNativ, OCI cells live cell; format: cell-based; details: 2 h, labeling site Activation Loop, peptide […]
BARK1 = BARK1 (Homo sapiens, UniProt P25098); test: KiNativ, OCI cells live cell; format: cell-based; details: 2 h, labeling site Lys2, peptide […]
SYK = SYK (Homo sapiens, UniProt P43405); test: KiNativ, OCI cells live cell; format: cell-based
p38a = p38a (Homo sapiens, UniProt Q16539); test: KiNativ, OCI cells live cell; format: cell-based
BTK = BTK (Homo sapiens, UniProt Q06187); test: KiNativ, OCI cells live cell; format: cell-based; details: labeling site Activation Loop, peptide YVLDDEYTSSVGSKFPVR
MLK4 = MLK4 (Homo sapiens, UniProt Q5TCX8); test: KiNativ, OCI cells live cell; format: cell-based; details: 2 h, labeling site Lys2, peptide […]
AurA = target: T3, AurA (Homo sapiens, UniProt O14965); test: KiNativ, OCI cells live cell; format: cell-based; details: 2 h
T3 sequence (O14965 1-403): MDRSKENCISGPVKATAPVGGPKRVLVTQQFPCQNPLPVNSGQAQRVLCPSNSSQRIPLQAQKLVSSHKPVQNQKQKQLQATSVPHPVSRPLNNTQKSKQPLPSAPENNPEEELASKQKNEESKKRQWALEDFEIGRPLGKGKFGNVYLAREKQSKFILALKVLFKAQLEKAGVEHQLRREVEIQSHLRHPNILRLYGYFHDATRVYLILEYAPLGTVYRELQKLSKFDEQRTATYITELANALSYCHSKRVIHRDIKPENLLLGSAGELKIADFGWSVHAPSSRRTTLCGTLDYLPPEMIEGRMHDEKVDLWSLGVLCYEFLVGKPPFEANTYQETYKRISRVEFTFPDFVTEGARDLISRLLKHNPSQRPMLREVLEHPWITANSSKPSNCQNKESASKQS

MST3, MST4, YSK1 = test: KiNativ, OCI cells live cell; format: cell-based, human; details: labeling site Activation Loop, peptide LADFGVAGQLTDTQIKR
MAP3K4 = MAP3K4 (Homo sapiens, UniProt Q9Y6R4); test: KiNativ, OCI cells live cell; format: cell-based; details: 2 h
Chain of MAP3K4 (Q9Y6R4 whole entry): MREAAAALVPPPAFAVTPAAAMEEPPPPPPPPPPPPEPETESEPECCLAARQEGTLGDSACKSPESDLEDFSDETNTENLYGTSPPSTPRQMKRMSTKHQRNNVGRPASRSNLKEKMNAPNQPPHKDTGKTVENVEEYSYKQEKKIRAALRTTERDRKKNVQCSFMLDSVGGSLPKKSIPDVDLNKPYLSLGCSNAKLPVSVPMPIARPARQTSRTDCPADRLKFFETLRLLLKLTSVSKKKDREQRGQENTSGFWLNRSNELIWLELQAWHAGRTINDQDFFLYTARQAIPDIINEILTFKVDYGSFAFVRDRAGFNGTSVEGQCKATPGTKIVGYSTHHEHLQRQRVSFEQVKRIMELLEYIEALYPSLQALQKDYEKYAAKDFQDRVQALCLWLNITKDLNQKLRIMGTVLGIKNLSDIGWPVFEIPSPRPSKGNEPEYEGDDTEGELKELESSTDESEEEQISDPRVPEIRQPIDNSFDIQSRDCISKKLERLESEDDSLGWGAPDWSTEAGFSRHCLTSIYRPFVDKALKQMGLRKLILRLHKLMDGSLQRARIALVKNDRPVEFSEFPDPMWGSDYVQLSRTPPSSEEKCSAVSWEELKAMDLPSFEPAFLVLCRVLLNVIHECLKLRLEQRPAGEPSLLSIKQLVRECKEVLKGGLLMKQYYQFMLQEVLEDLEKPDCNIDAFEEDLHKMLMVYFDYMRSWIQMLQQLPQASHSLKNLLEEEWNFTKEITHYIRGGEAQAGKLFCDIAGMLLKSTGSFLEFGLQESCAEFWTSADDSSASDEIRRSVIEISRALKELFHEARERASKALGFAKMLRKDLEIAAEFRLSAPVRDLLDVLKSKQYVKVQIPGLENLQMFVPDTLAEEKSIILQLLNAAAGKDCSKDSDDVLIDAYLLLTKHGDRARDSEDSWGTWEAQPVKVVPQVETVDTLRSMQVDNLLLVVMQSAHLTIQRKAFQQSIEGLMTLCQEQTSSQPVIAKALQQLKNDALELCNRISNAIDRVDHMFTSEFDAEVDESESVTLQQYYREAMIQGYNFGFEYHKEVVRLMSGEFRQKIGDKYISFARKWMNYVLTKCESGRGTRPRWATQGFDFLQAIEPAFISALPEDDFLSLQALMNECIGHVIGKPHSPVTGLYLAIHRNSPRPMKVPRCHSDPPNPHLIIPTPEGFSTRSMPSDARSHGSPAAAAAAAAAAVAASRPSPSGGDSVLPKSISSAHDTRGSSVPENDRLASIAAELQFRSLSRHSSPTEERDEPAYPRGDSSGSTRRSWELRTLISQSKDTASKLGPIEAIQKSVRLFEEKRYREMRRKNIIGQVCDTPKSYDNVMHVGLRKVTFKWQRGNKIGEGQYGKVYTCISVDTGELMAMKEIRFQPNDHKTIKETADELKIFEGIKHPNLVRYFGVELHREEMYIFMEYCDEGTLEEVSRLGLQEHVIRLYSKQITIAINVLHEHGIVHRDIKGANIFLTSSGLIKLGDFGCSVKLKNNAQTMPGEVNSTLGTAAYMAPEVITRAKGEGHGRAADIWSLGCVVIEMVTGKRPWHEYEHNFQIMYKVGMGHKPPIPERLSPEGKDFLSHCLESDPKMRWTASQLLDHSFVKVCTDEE

Chain of p38a (Q16539 whole entry): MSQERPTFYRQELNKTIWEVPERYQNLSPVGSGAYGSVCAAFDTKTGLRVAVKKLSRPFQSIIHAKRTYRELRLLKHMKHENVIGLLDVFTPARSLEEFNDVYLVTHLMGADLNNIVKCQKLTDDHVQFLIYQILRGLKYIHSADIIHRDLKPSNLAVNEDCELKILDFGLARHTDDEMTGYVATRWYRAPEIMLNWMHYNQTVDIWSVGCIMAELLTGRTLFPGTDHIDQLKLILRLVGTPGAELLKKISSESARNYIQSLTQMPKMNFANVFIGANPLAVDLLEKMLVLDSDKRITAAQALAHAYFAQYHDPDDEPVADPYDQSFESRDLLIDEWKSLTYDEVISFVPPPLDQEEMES
Chain of FER (P16591 whole entry): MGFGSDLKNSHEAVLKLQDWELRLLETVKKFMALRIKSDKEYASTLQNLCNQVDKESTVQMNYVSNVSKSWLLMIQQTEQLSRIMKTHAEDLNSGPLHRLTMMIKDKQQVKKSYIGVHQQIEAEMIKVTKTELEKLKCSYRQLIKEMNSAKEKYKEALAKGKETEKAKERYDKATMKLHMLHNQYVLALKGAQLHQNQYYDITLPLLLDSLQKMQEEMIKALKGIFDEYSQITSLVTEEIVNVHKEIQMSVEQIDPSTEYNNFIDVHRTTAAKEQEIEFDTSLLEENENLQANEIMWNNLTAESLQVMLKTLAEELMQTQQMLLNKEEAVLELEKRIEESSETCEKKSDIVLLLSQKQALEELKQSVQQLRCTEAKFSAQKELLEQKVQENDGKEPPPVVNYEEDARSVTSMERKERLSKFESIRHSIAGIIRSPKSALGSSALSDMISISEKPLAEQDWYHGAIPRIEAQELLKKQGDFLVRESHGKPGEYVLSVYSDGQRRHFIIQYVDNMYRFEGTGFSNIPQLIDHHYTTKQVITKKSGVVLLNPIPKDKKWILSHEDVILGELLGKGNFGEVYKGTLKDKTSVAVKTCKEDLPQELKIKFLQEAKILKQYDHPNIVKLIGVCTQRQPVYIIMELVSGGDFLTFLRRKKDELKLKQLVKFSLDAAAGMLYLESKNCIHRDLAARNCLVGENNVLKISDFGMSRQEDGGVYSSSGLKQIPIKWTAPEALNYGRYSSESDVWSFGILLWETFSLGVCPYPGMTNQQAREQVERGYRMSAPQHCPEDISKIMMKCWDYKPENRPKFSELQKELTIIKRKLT
Chain of NEK4 (P51957 whole entry): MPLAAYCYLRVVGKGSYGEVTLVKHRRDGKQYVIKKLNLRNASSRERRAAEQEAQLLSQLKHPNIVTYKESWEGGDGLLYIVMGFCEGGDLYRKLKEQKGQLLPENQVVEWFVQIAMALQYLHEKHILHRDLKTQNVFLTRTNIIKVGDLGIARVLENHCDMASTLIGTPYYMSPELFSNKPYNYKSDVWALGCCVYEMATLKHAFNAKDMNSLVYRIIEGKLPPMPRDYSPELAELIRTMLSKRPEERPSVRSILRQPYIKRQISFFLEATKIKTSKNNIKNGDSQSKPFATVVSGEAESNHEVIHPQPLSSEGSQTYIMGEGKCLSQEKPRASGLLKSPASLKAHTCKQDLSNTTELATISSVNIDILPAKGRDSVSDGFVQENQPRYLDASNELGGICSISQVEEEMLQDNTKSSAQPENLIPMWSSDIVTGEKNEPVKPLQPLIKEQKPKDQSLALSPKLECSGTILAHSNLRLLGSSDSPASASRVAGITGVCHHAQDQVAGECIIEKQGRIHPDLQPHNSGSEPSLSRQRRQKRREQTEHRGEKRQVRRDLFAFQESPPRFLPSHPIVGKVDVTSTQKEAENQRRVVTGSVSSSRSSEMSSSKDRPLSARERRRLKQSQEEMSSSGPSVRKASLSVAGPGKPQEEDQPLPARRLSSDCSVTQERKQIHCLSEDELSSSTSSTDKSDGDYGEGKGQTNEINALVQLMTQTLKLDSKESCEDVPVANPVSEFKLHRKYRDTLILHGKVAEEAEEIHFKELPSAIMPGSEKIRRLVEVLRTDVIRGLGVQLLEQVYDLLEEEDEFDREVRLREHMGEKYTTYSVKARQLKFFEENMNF
Chain of BTK (Q06187 whole entry): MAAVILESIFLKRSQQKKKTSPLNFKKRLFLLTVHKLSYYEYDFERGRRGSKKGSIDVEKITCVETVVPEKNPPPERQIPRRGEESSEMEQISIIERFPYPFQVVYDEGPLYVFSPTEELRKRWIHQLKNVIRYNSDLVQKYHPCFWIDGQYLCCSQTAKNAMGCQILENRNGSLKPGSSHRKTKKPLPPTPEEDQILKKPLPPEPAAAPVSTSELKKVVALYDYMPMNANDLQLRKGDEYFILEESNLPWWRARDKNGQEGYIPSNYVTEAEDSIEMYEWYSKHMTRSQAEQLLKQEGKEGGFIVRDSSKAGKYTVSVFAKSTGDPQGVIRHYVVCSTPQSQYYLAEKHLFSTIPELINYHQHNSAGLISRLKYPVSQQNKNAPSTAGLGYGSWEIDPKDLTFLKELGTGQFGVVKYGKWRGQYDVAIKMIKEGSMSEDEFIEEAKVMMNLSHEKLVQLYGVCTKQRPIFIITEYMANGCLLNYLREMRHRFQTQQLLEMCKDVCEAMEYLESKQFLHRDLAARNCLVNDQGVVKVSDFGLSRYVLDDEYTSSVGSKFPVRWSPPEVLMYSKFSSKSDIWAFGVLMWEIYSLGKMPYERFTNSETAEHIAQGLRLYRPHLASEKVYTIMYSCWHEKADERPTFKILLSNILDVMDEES
Chain of NEK8 (Q86SG6 whole entry): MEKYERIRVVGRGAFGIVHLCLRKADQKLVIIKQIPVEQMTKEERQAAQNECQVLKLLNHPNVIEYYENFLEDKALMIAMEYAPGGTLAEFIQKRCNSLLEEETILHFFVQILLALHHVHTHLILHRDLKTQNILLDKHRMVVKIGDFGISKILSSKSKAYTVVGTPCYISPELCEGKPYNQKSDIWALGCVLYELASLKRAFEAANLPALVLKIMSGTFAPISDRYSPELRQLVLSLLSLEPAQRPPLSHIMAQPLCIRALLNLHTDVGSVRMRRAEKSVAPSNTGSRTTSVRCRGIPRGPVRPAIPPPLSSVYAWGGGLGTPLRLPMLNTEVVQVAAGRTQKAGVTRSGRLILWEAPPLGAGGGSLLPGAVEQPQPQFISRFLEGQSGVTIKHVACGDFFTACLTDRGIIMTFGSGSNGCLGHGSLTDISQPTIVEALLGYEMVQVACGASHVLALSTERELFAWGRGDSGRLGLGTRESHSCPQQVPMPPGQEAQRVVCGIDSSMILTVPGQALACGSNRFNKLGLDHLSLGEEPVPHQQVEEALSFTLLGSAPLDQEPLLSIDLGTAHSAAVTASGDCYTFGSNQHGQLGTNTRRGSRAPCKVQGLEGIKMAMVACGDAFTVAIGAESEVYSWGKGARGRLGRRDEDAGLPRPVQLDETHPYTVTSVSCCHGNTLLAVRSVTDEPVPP

Compound: CN1CCN(Cc2ccc(Nc3ncc(Cl)c(Nc4ccccc4S(=O)(=O)N(C)C)n3)cc2)CC1 [TP-0903]
- inhibition at 0.1 µM (NEK8): -6.8%
- Inhibition (PCTAIRE2, PCTAIRE3): 89.6%
- inhibition at 0.1 µM (PIP4K2C; peptide TLVIKEVSSEDIADMHSNLSNYHQYIVK): -9.8%
- inhibition at 0.1 µM (PIP4K2C; peptide VKELPTLKDMDFLNK): -19.6%
- Kd (GCK): 1.8 nM
- Inhibition (MST4, YSK1): 25.0%
- inhibition at 0.1 µM (NEK4): -12.3%
- inhibition at 0.1 µM (FER): 70.2%
- inhibition at 0.1 µM (BARK1): -3.8%
- Inhibition (SYK; labeling site Activation Loop, peptide AQTHGKWPVK): 39.8%
- Inhibition (SYK; labeling site Activation Loop, peptide ISDFGLSKALR): 38.5%
- Inhibition (SYK; labeling site Lys1, peptide TVAVKILK): 37.9%
- Inhibition (p38a; labeling site Lys2, peptide DLKPSNLAVNEDCELK): -2.7%
- Inhibition (p38a; labeling site Other, peptide QELNKTIWEVPER): 5.6%
- Inhibition (BTK): 57.3%
- inhibition at 0.1 µM (MLK4): 12.7%
- inhibition at 0.1 µM (AurA; labeling site Lys1, peptide FILALKVLFK): 89.9%
- inhibition at 0.1 µM (AurA; labeling site Lys2, peptide DIKPENLLLGSAGELK): 90.7%
- Inhibition (MST3, MST4, YSK1): -57.1%
- inhibition at 0.1 µM (MAP3K4; labeling site Lys1, peptide VYTCISVDTGELMAMKEIR): 2.7%
- inhibition at 0.1 µM (MAP3K4; labeling site Lys2, peptide DIKGANIFLTSSGLIK): 24.7%
